Here are results for two molecules from patent publication US7018618B2, “Stable pharmaceutical solution formulations for pressurized metered dose inhalers” (Chiesi Farmaceutici S.p.A., priority 2000, dated 2006).

Holding throughout (type): physicochemical
A short description of data set [1]: Effect of hydrochloric acid on solution pH′ (acidity function) in model vehicle HFA 43-10MEE (Vertrel XF). Conditions: titrated with a strong acid in model vehicle HFA 43-10MEE (Vertrel XF).
Description: The meter reading represents an apparent pH or acidity function (pH′).
(a) 1.0 M hydrochloric acid was added incrementally to 50 mL of HFA 43-10MEE (Vertrel XF) containing 20% w/w ethanol and pH′ measured after each aliquot of acid.
Data set [2] can be described thus: Stability of acidified TA 2005-HFA 134a solutions in cans coated with a fluorocarbon polymer.
Test in data set [3]: as above
Conditions: for stability (in words): almost three months at 50° C. The text has this:
(§1) Each value is expressed as percent nominal drug concentration.

The nature of data set [4]: Stability of acidified formoterol/BDP-HFA 134a solutions in cans coated with a fluorocarbon polymer. Conditions: HFA 134a/12% ethanol/0.4% isopropyl myristate, 3.25 μl 1.0 M HCl.
Excerpt: as §1

On to `COc1ccc(C[C@@H](C)NC[C@H](O)c2ccc(O)c3[nH]c(=O)ccc23)cc1` [TA 2005, 8-hydroxy-5-[(1R)-1-hydroxy-2-[[(1R)-2-(4-methoxyphenyl)-1-methylethyl]amino]ethyl]-2(1H)-quinolinone], for which, in data set [1], the “pH′ down to which the titration profile is shallow, thereafter the acidity function drops abruptly” value was about 5.0. Further, the “apparent pH” value in data set [2] (1.0 μl 0.08 M hydrochloric acid per can, 3.5 μg/50 μl in HFA 134a/12% ethanol/1.0% isopropyl myristate) is reported as “about 4.8”; in data set [2] (1.4 μl 0.08 M hydrochloric acid per can) it was about 3.2; in data set [2] (1.8 μl 0.08 M hydrochloric acid per can), about 2.9. The “percent nominal drug concentration” value in data set [3] (1.0 μl 0.08 M HCl per can (apparent pH about 4.8), 50° C., 22 days upright) stood at 98.3 percent nominal; in data set [3] (1.0 μl 0.08 M HCl per can (apparent pH about 4.8), 50° C., 83 days upright), 99.4 percent nominal; in data set [3] (1.0 μl 0.08 M HCl per can (apparent pH about 4.8), Initial, HFA 134a/12% ethanol/1.0% isopropyl myristate, coated cans), 100.0 percent nominal; in data set [3] (1.4 μl 0.08 M HCl per can (apparent pH about 3.2), 50° C., 22 days upright) it was 98.2 percent nominal; in data set [3] (1.4 μl 0.08 M HCl per can (apparent pH about 3.2), 50° C., 83 days upright), 98.8 percent nominal; in data set [3] (1.4 μl 0.08 M HCl per can (apparent pH about 3.2), Initial), 100.0 percent nominal. The “percent nominal drug concentration” value is recorded as 90.2 percent nominal in data set [3] (1.8 μl 0.08 M HCl per can (apparent pH about 2.9), 50° C., 22 days upright); 88.1 percent nominal in data set [3] (1.8 μl 0.08 M HCl per can (apparent pH about 2.9), 50° C., 83 days upright); 100.0 percent nominal in data set [3] (1.8 μl 0.08 M HCl per can (apparent pH about 2.9), Initial). Moreover, the “stability (in words)” value in data set [3] (apparent pH between 3.0 and 5.0, stable = much less than 10% loss of drug) is reported as “stable”; in data set [3] (apparent pH of less than 3), “not”.

Turning to `CCC(=O)OCC(=O)[C@@]1(OC(=O)CC)[C@@H](C)C[C@H]2[C@@H]3CCC4=CC(=O)C=C[C@]4(C)[C@@]3(Cl)[C@@H](O)C[C@@]21C` [BDP, beclometasone dipropionate], the “percent nominal drug concentration” value turned out to be 100.10 percent nominal in data set [4] (4° C., 64 days inverted); 102.6 percent nominal in data set [4] (4° C., 123 days inverted); 99.4 percent nominal in data set [4] (Initial).
